Measurements as given in patent US20220127297A1, “Novel Antibacterial 3"-Derivatives Of 4,6-Disubstituted 2,5-Dideoxystreptamine Aminoglycoside Antibiotics” (AGILeBiotics B.V., priority 2018, published 2022).
In brackets after ≈: the same amount, converted by molar mass. Like-named read-outs stand apart in the source and are kept apart here.

Assays:
[1] = system: clinical isolates of methicillin-resistant Staphylococcus aureus (MRSA); assay: MIC determination at Fidelta, clinical isolates; format: cell-based
Description: (§1) 3.4.2 MIC Determination at Fidelta (Croatia)
(§2) Tested reference compounds. Amikacin sulfate (Cat. No. 01693, Chem-Impex), Gentamicin sulfate (Cat. No. G4918, Sigma Aldrich), Ceftazidime Pentahydrate (Cat. No. 1098130, USP), Meropenem (Cat. No. 1392454, USP), Tobramycin (Cat. No. 1667508, USP).
(§3) Microbial strains. Klebsiella pneumoniae KP-1919 (abdomen), Klebsiella pneumoniae KP-1935 (urine), Klebsiella pneumoniae KP-1936 (abscess), Klebsiella pneumoniae KP-1937 (blood), Klebsiella pneumoniae KP-1942 (urine), Klebsiella pneumoniae KP-1944 (blood), Klebsiella pneumoniae KP-2027 (tracheal aspirate), Klebsiella pneumoniae KP-2029 (urine), Klebsiella pneumoniae KP-2030 (trachea), Klebsiella pneumoniae KP-2031 (skin), Klebsiella pneumoniae KP-2032 (urine), Klebsiella pneumoniae KP-2033 (urine), Klebsiella pneumoniae KP-2034 (urine), Klebsiella pneumoniae KP-2035 (urine), Klebsiella pneumoniae KP-2036 (urine), Klebsiella pneumoniae KP-2037 (urine), Klebsiella pneumoniae ATCC 43816, Pseudomonas aeruginosa PA-1948 (wound), Pseudomonas aeruginosa PA-1949 (urine), Pseudomonas aeruginosa PA-1950 (sputum), Pseudomonas aeruginosa PA-1952 (wound), Pseudomonas aeruginosa PA-1953 (urine), Pseudomonas aeruginosa PA-1954 (sputum), Pseudomonas aeruginosa PA-1967 (blood), Pseudomonas aeruginosa ATCC27853, Acinetobacter baumannii AB-1931 (urine), Acinetobacter baumannii AB-1932 (urine), Acinetobacter baumannii AB-2017 (bronchial aspirate), Acinetobacter baumannii AB-2018 (skin), Acinetobacter baumannii AB-2019 (bronchial aspirate), Acinetobacter baumannii AB-1964 (blood), Acinetobacter baumannii AB-2025 (skin), Acinetobacter baumannii AB-2026 (skin), Acinetobacter baumannii ATCC17978, methicillin-resistant Staphylococcus aureus MRSA-1995 (liquor), methicillin-resistant Staphylococcus aureus MRSA-1998 (wound), methicillin-resistant Staphylococcus aureus MRSA-1999 (skin), methicillin-resistant Staphylococcus aureus MRSA-2003 (wound), vancomycin-resistant Enterococcus faecium VRE-2005 (urine), vancomycin-resistant Enterococcus faecium VRE-2006 (urine), vancomycin-resistant Enterococcus faecium VRE-2007 (urine), vancomycin-resistant Enterococcus faecium VRE-2008 (urine), vancomycin-resistant Enterococcus faecium VRE-2009 (urine), vancomycin-resistant Enterococcus faecium VRE-2010 (urine), vancomycin-resistant Enterococcus faecium VRE-2011 (rectum), vancomycin-resistant Enterococcus faecium VRE-2012 (rectum), vancomycin-resistant Enterococcus faecium VRE-2013 (rectum).
(§4) Culture media and equipment. BBL™ Mueller Hinton Broth (REF 275730, Lot. 7009699, Becton Dickinson); Mueller Hinton Agar 2 (Ref. No. 97580-500G-F, Lot. No. BCBV4646, Sigma); Cellstar, 96-well plates, U-bottom (Cat. No. 650180, Lot. No. E14123EB, Greiner Bio-one); 96-well deep well plate, 1 mL (Cat. No. 278606, Nunc); Incubator (Binder); Laminar flow (Thermo Scientific); BioPhotometer (Eppendorf); DEN-1B (McFarland Densitometer, Biosan); McFarland standards (polymer microparticle suspension, Biosan).
(§5) Compound preparation. For testing, 5 mg/mL DMSO solutions of the test compounds and reference antibiotics were used. Out of these DMSO solutions, 43.5 μL was transferred to 1656.5 μL of MH media in a deep well plate. Out of these working solutions 100 μL was transferred to wells in the third column of 96-well plates. Plates are previously filled with 50 μL of MH media in all wells except for the wells in the third column. After compound and antibiotic addition, 50 μL was transferred from the third to the fourth column, then from the fourth to the fifth and so on. In this manner, the compounds and antibiotics were plated in 96-well plate in serial two-fold dilutions giving a final concentration range of 64-0.125 μg/mL.
(§6) Inoculum preparation. Designations used for clinical isolates were from Fidelta strain collection bank. Microorganisms used were all revived from skim milk storage at −70° C. by plating them on MH agar plates.

[2] = system: clinical isolates of multidrug-resistant Klebsiella pneumoniae (and ATCC43816); assay: MIC determination at Fidelta, clinical isolates; format: cell-based; details: Klebsiella pneumoniae
Description: as §1, §2, §3, §4, §5, §6

[3] = system: clinical isolates of Vancomycin-resistant Enterococcus faecium (VRE); assay: MIC determination at Fidelta, clinical isolates; format: cell-based
Description: as §1, §2, §3, §4, §5, §6

[4] = system: Klebsiella pneumoniae ATCC 43816; assay: Murine neutropenic thigh model of infection; format: in vivo, male CD-1 mice
Description: 4.1 Murine Neutropenic Thigh Model of Infection (Kiebsiella Pneumoniae ATCC 43816)
A comparator antibiotic (meropenem; Cat. No. 1392454, USP) was used during both studies.
During the first study ABX5006 and ABX5020 were tested at a dose of 64 mg/kg (group 5 for ABX5006, group 8 for ABX5020), 16 mg/kg (group 4 for ABX5006, group 7 for ABX5020) and of 4 mg/kg (group 3 for ABX5006, group 6 for ABX5020).
During a second study ABX5026 and ABX5039 were tested at a dose of 4 mg/kg (group 5 for ABX5026, group 8 for ABX5039), 1 mg/kg (group 4 for ABX5026, group 7 for ABX5039) and of 0.25 mg/kg (group 3 for ABX5026, group 6 for ABX5039).
Animals were dosed subcutaneously (10 mL/kg) twice with 8 h interval. […] A CFU count below limit of detection (LOD=1.0×10^2 CFU/mL) was substituted with the value 0 in order to perform statistical analysis.
Inoculum preparation for intramuscular infection. The strain was streaked out onto MH agar.

[5] = ATCC43816, KP-1919, Abdomen/VIM, ESBL
[6] = ATCC43816, KP-1935, Urine/ESBL, NDM
[7] = ATCC43816, KP-1936, Abscess/NDM
[8] = ATCC43816, KP-1937, Blood/VIM, ESBL
[9] = ATCC43816, KP-1942, Urine (catheter)/VIM
[10] = ATCC43816, KP-2027, Tracheal aspirate/ESBL, OXA-48, ColR
[11] = ATCC43816, KP-2029, Urine/ESBL, OXA-48
[12] = ATCC43816, KP-2030, Trachea/ESBL, OXA-48
[13] = ATCC43816, KP-2031, Skin/ESBL, OXA-48
[14] = ATCC43816, KP-2032, Urine/ESBL, OXA-48
[15] = ATCC43816, KP-2033, Urine/OXA-A8
[16] = ATCC43816, KP-2034, Urine/ESBL, OXA-48
[17] = ATCC43816, KP-2035, Urine/ESBL, OXA-48
[18] = ATCC43816, KP-2037, Urine/ESBL, OXA-48

CC(C)(O/N=C(\C(=O)N[C@@H]1C(=O)N2C(C(=O)[O-])=C(C[n+]3ccccc3)CS[C@H]12)c1csc(N)n1)C(=O)O [Ceftazidime, reference compound]
MIC90 ([1]; MRSA-1995, Liquor): > 64 µg/mL | MIC90 ([1]; MRSA-1998, Wound): > 64 µg/mL | MIC90 ([1]; MRSA-1999, Skin): > 64 µg/mL | MIC90 ([1]; MRSA-2003, Wound): > 64 µg/mL | MIC90 ([2]; ATCC43816, K. pneumoniae ATCC43816 strain, read-out: MIC 90): < 0.125 µg/mL | MIC90 [2, 5]: 64 µg/mL (≈ 117 µM) | MIC90 [2, 6]: > 64 µg/mL | MIC90 [2, 7]: > 64 µg/mL | MIC90 [2, 8]: > 64 µg/mL | MIC90 [2, 9]: > 64 µg/mL | MIC90 ([2]; ATCC43816, KP-1944, Blood/NDM): > 64 µg/mL | MIC90 [2, 10]: > 64 µg/mL | MIC90 [2, 11]: > 64 µg/mL | MIC90 [2, 12]: > 64 µg/mL | MIC90 [2, 13]: > 64 µg/mL | MIC90 [2, 14]: > 64 µg/mL | MIC90 [2, 15]: > 64 µg/mL | MIC90 [2, 16]: > 64 µg/mL | MIC90 [2, 17]: > 64 µg/mL | MIC90 ([2]; ATCC43816, KP-2036, Urine/ESBL): > 64 µg/mL | MIC90 [2, 18]: > 64 µg/mL | MIC90 ([3]; VRE-2005, Urine): > 64 µg/mL | MIC90 ([3]; VRE-2006, Urine): > 64 µg/mL | MIC90 ([3]; VRE-2007, Urine): > 64 µg/mL | MIC90 ([3]; VRE-2008, Urine): > 64 µg/mL | MIC90 ([3]; VRE-2009, Urine): > 64 µg/mL | MIC90 ([3]; VRE-2010, Urine): > 64 µg/mL | MIC90 ([3]; VRE-2011, Rectum): > 64 µg/mL | MIC90 ([3]; VRE-2012, Rectum): > 64 µg/mL | MIC90 ([3]; VRE-2013, Rectum): > 64 µg/mL

C[C@@H](O)[C@H]1C(=O)N2C(C(=O)O)=C(S[C@@H]3CN[C@H](C(=O)N(C)C)C3)[C@H](C)[C@H]12 [Meropenem, meropenem, reference compound]
Change from vehicle group ([4]; Log CFU/g thigh, dose 100 mg/kg SC BID): −4.56 | Avg. Log CFU/g thigh ([4]; dose 100 mg/kg SC BID, 24 h post infection): 4.95 Log CFU/g | Change from vehicle group ([4]; dose 100 mg/kg, SC, BID, Avg. Log CFU/g thigh vs vehicle): 8.17 | Avg. Log CFU/g ([4]; dose 100 mg/kg, SC, BID, thigh, 24 hours post infection): 1.61 Log CFU/g | survival rate ([4]; first study, vehicle group 50% mortality): 100% | MIC90 ([1]; MRSA-1995, Liquor): 64 µg/mL (≈ 167 µM) | MIC90 ([1]; MRSA-1998, Wound): 8 µg/mL (≈ 20.9 µM) | MIC90 ([1]; MRSA-1999, Skin): 64 µg/mL (≈ 167 µM) | MIC90 ([1]; MRSA-2003, Wound): 8 µg/mL (≈ 20.9 µM) | MIC90 ([2]; ATCC43816): < 0.125 µg/mL | MIC90 [2, 5]: 4 µg/mL (≈ 10.4 µM) | MIC90 [2, 6]: 32 µg/mL (≈ 83.4 µM) | MIC90 [2, 7]: > 64 µg/mL | MIC90 [2, 8]: 32 µg/mL (≈ 83.4 µM) | MIC90 [2, 9]: 64 µg/mL (≈ 167 µM) | MIC90 ([2]; ATCC43816, KP-1944, Blood/NDM): > 64 µg/mL | MIC90 [2, 10]: 4 µg/mL (≈ 10.4 µM) | MIC90 [2, 11]: 4 µg/mL (≈ 10.4 µM) | MIC90 [2, 12]: 4 µg/mL (≈ 10.4 µM) | MIC90 [2, 13]: 2 µg/mL (≈ 5.22 µM) | MIC90 [2, 14]: 2 µg/mL (≈ 5.22 µM) | MIC90 [2, 15]: 16 µg/mL (≈ 41.7 µM) | MIC90 [2, 16]: 16 µg/mL (≈ 41.7 µM) | MIC90 [2, 17]: 2 µg/mL (≈ 5.22 µM) | MIC90 ([2]; ATCC43816, KP-2036, Urine/ESBL): 16 µg/mL (≈ 41.7 µM) | MIC90 [2, 18]: 2 µg/mL (≈ 5.22 µM) | MIC90 ([3]; VRE-2005, Urine): > 64 µg/mL | MIC90 ([3]; VRE-2006, Urine): > 64 µg/mL | MIC90 ([3]; VRE-2007, Urine): > 64 µg/mL | MIC90 ([3]; VRE-2008, Urine): > 64 µg/mL | MIC90 ([3]; VRE-2009, Urine): > 64 µg/mL | MIC90 ([3]; VRE-2010, Urine): > 64 µg/mL | MIC90 ([3]; VRE-2011, Rectum): > 64 µg/mL | MIC90 ([3]; VRE-2012, Rectum): > 64 µg/mL | MIC90 ([3]; VRE-2013, Rectum): > 64 µg/mL
